Here are results for 6 compounds from patent publication US12495798B2, “Nicotinamide compound and herbicidal composition comprising compound” (KOREA RESEARCH INSTITUTE OF CHEMICAL TECHNOLOGY, priority 2019, dated 2025).

Type in all cases: in vivo
For series [1], the system named is corn. Description: Phytotoxicity test for upland field crops (foliar treatment test). More on the design: key: 0 (no harm); 9 (complete withered). The method, boiled down:
(§1)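 Post-emergence spray at 19–300 g a.i./ha (acetone/Tween-20 diluent, 100 ml/m²) onto greenhouse-grown plants. Damage rated 7 and 14 (optionally 21) days later on a 0–9 scale relative to untreated plants.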

Series [2] concerns wheat. The series is described as above. More on the design: key: 0 (no harm); 9 (complete withered). An outline of the steps:
as §1

The test system of series [3] is crabgrass. Description: Herbicidal activity test against upland field weeds (foliar treatment test). Conditions: 50 g ai/ha, scale 0-100; for pest or weed control at 50 g/ha: Digitaria sanguinalis. The method, boiled down:
(§2)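 Visual 0–100 control ratings relative to untreated plants, taken 14 (or 21) days after spraying foliage at 50 or 75 g a.i./ha. Spray solution: 50% acetone with 0.1% Tween-20; plants kept in greenhouse at 30±5 °C, 14 h light/10 h dark.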

The test system of series [4] is barnyard grass. The description is as above. Conditions: 50 g ai/ha, scale 0-100; for pest or weed control at 50 g/ha: Echinochloa crus-galli. More on the design: key to Foliar treatment herbicidal activity, barnyard grass: 0 (no control); 100 (complete control). An outline of the steps:
as §2

The test system of series [5] is quack grass. The description is as above. More on the design: key to Foliar treatment herbicidal activity, quack grass: 0 (no control); 100 (complete control). Conditions: 50 g ai/ha, scale 0-100. The method, boiled down:
as §2

For series [6], the system named is black nightshade. The series is described as above. More on the design: key to Foliar treatment herbicidal activity, black nightshade: 0 (no control); 100 (complete control). Conditions: 50 g ai/ha, scale 0-100. The method, boiled down:
as §2

For series [7], the system named is indian jointvetch. The description is as above. Conditions: 50 g ai/ha, scale 0-100. The method, boiled down: as §2
In series [8] the test system is velvetleaf. The description is as above. To be noted: 50 g ai/ha; for pest or weed control at 50 g/ha: Abutilon theophrasti, scale 0-100, read-out: Foliar treatment herbicidal activity, velvet leaf. The method, boiled down:
as §2

Series [9] relates to bindweed. The description is as above. To be noted: 50 g ai/ha, scale 0-100. The method, boiled down:
as §2

For series [10], the system named is sorghum. The series is described as above. More on the design: key to Foliar treatment herbicidal activity, Sorghum: 0 (no control); 100 (complete control). Conditions: 50 g ai/ha, scale 0-100; for plant injury at 50 g/ha: Sorghum. The method, boiled down: as §2
The subject of series [11] is fall panicum. The description is as above. Conditions: 50 g ai/ha, scale 0-100; for pest or weed control at 50 g/ha: Panicum dichotomiflorum. The method, boiled down:
as §2

Series [12] relates to cocklebur. Described as above. Conditions: 50 g ai/ha, scale 0-100; for pest or weed control at 50 g/ha: Xanthium strumarium. The method, boiled down: as §2
The mark [13] stands for this setting: 50 g ai/ha, Corn (7 days after treatment).
[14] abbreviates: 50 g ai/ha, Corn (14 days after treatment).
Where [15] appears, read: 100 g ai/ha, Corn (7 days after treatment).
Where [16] appears, read: 100 g ai/ha, Corn (14 days after treatment).
Setting [17] is: 50 g ai/ha, Wheat (7 days after treatment).
The mark [18] stands for this setting: 50 g ai/ha, Wheat (14 days after treatment).
[19] abbreviates: 100 g ai/ha, Wheat (7 days after treatment).
Where [20] appears, read: 100 g ai/ha, Wheat (14 days after treatment).

Take `C=CCn1nnnc1NC(=O)c1ccc(C(F)(F)F)nc1COCc1nnn(CC)n1` [Compound No. 2-90, N-(1-allyl-1H-tetrazol-5-yl)-2-(((2-ethyl-2H-tetrazol-5-yl)methoxy)methyl)-6-(trifluoromethyl)nicotinamide]: the “Foliar treatment phytotoxicity, Corn” value in series [1] (setting [13]), in series [1] (setting [14]), in series [1] (setting [15]) and in series [1] (setting [16]) was 0 throughout. Moreover, the “Foliar treatment phytotoxicity, Wheat” value in series [2] (setting [17]), in series [2] (setting [18]), in [2] (setting [19]) and in series [2] (setting [20]) was 0 each time. In addition, the pest or weed control at 50 g/ha in series [3] worked out at 70%; in [4], 98%; in series [7] it was 80%; in [8], 98%; in [9], 70%; in [11] it was 60%. Besides, in series [12], the pest or weed control at 50 g/ha was 70%. Further, in series [5], the “Foliar treatment herbicidal activity, quack grass” value was found to be 0. For the same compound, the “Foliar treatment herbicidal activity, black nightshade” value in series [6] stood at 100. Also, in series [10], the plant injury (commonly the degree to which the test organism was suppressed or injured, in per cent) at 50 g/ha stood at 20%.

Take `Cn1nc(COCc2nc(C(F)(F)F)ccc2C(=O)Nc2nnnn2C)nc1CF` [Compound No. 2-126, 2-(((5-(fluoromethyl)-1-methyl-1H-1,2,4-triazol-3-yl)methoxy)methyl)-N-(1-methyl-1H-tetrazol-5-yl)-6-(trifluoromethyl)nicotinamide]: the “Foliar treatment phytotoxicity, Corn” value in series [1] (setting [13]) is listed as 1; in series [1] (setting [14]), 1; in series [1] (setting [15]), 3; in [1] (setting [16]), 2. The “Foliar treatment phytotoxicity, Wheat” value in series [2] (setting [17]), in series [2] (setting [18]), in [2] (setting [19]) and in [2] (setting [20]) was 0 throughout. In addition, the pest or weed control at 50 g/ha in [3] stood at 90%; in series [4], 80%; in series [7], 50%; in series [8], 80%; in series [9], 20%; in series [11], 80%. Also, the pest or weed control at 50 g/ha in series [12] was determined as 90%. Moreover, in series [5], the “Foliar treatment herbicidal activity, quack grass” value was found to be 0. In [6], the “Foliar treatment herbicidal activity, black nightshade” value was determined as 100. Moreover, the plant injury at 50 g/ha in [10] was determined as 60%.

For the compound `CCn1nnnc1NC(=O)c1ccc(C(F)(F)F)nc1COCc1nc(C(F)(F)F)n(C)n1` [Compound No. 2-119, N-(1-ethyl-1H-tetrazol-5-yl)-2-(((1-methyl-5-(trifluoromethyl)-1H-1,2,4-triazol-3-yl)methoxy)methyl)-6-(trifluoromethyl)nicotinamide], the “Foliar treatment phytotoxicity, Corn” value in [1] (setting [13]), in [1] (setting [14]), in series [1] (setting [15]) and in [1] (setting [16]) was 0 throughout. Also, the “Foliar treatment phytotoxicity, Wheat” value in [2] (setting [17]), in series [2] (setting [18]), in series [2] (setting [19]) and in [2] (setting [20]) was 0 throughout. Also, the pest or weed control at 50 g/ha in series [3] is 95%; in [4], 95%; in [5], 30%; in [6] (Solanum nigrum), 98%; in series [7], 60%; in series [8], 50%. The pest or weed control at 50 g/ha turned out to be 80% in [9], 90% in [11] and 90% in series [12]. In series [10], the plant injury at 50 g/ha came out at 20%.

On to `CCn1nnc(COCc2nc(C(F)(F)F)ccc2C(=O)Nc2nnnn2CC)n1` [Compound No. 2-88, N-(1-ethyl-1H-tetrazol-5-yl)-2-(((2-ethyl-2H-tetrazol-5-yl)methoxy)methyl)-6-(trifluoromethyl)nicotinamide], for which the “Foliar treatment phytotoxicity, Corn” value in series [1] (setting [13]), in series [1] (setting [14]), in series [1] (setting [15]) and in series [1] (setting [16]) was 0 each time. Further, the “Foliar treatment phytotoxicity, Wheat” value in [2] (setting [17]), in series [2] (setting [18]), in series [2] (setting [19]) and in series [2] (setting [20]) was 0 in each case. In addition, the pest or weed control at 50 g/ha in [3] is 20%; in series [7], 60%; in series [8], 70%; in [9] it was 70%; in [11], 40%; in series [12] it was 70%. For the same compound, the “Foliar treatment herbicidal activity, barnyard grass” value in series [4] is recorded as 0. The “Foliar treatment herbicidal activity, quack grass” value in series [5] was 0. Also, the “Foliar treatment herbicidal activity, black nightshade” value in series [6] is 100. Further, in [10], the “Foliar treatment herbicidal activity, Sorghum” value is 0.

Turning to `Cn1nnnc1NC(=O)c1ccc(C(F)(F)F)nc1COCc1nc(C(F)(F)F)n(C)n1` [Compound No. 2-118, N-(1-methyl-1H-tetrazol-5-yl)-2-(((1-methyl-5-(trifluoromethyl)-1H-1,2,4-triazol-3-yl)methoxy)methyl)-6-(trifluoromethyl)nicotinamide], the “Foliar treatment phytotoxicity, Corn” value in series [1] (setting [13]), in series [1] (setting [14]), in series [1] (setting [15]) and in series [1] (setting [16]) was 0 throughout. In addition, the “Foliar treatment phytotoxicity, Wheat” value in [2] (setting [17]), in series [2] (setting [18]), in series [2] (setting [19]) and in series [2] (setting [20]) was 0 throughout. Also, the pest or weed control at 50 g/ha in series [3] turned out to be 90%; in series [4] it was 95%; in [7], 50%; in series [8] it was 90%; in [9] it was 95%; in [11], 95%. This compound also had a pest or weed control at 50 g/ha in series [12] of 90%. In addition, the “Foliar treatment herbicidal activity, quack grass” value in [5] turned out to be 0. Also, the “Foliar treatment herbicidal activity, black nightshade” value in [6] is listed as 100. The plant injury at 50 g/ha in series [10] turned out to be 40%.

Turning to `Cn1nnnc1NC(=O)c1ccc(C(F)(F)F)nc1COCc1nc(C(F)F)n(C)n1` [Compound No. 2-123], the “Foliar treatment phytotoxicity, Corn” value in series [1] (setting [13]) worked out at 3; in series [1] (setting [14]), 2; in series [1] (setting [15]) it was 4; in series [1] (setting [16]), 4. Moreover, the “Foliar treatment phytotoxicity, Wheat” value in series [2] (setting [17]), in series [2] (setting [18]), in [2] (setting [19]) and in series [2] (setting [20]) was 0 throughout. For the same compound, in [3], the “Foliar treatment herbicidal activity, Crabgrass” value was 95. Besides, the “Foliar treatment herbicidal activity, barnyard grass” value in series [4] came to 95. Besides, the “Foliar treatment herbicidal activity, quack grass” value in [5] was found to be 40. In addition, in series [6], the “Foliar treatment herbicidal activity, black nightshade” value came to 98. Besides, the “Foliar treatment herbicidal activity, Indian jointvetch” value in series [7] is listed as 70. The “Foliar treatment herbicidal activity, velvet leaf” value in series [8] (scale 0-100) turned out to be 70. The “Foliar treatment herbicidal activity, Bindweed” value in series [9] worked out at 80. Also, the “Foliar treatment herbicidal activity, Sorghum” value in [10] is listed as 70. The “Foliar treatment herbicidal activity, Fall panicum” value in [11] is given as 95. The “Foliar treatment herbicidal activity, Cocklebur” value in series [12] is on record as 90.
